The values that follow come from patent US20220370416A1, “COMPOUNDS AND METHODS FOR TARGETED DEGRADATION OF KRAS” (Arvinas Operations, Inc., priority 2020, published 2022).

The structures appear in SMILES notation.

This test concerns the target HiBit-KRAS^G12C (Homo sapiens, UniProt P01116, G12C). Briefly: HiBit degradation assay in SW1573 HiBit-KRas^G12C cells. Type of test: cell-based. Set-up: expressed in transfected cells; host or cells: SW1573 (clone E6), modified pcDNA3.1 vector, TK promoter. The settings on record: 0.1% DMSO, 24 hours; for Dmax: SW1573, SW1573 HiBit-KRas^G12C, read-out: KRas^G12C-HiBit (SW1573; 0.1% DMSO) Dmax**; for DC50: SW1573 HiBit-KRas^G12C, read-out: KRas^G12C-HIBit (SW1573; 0.1% DMSO) DC50*. How it is done: Reagents. SW1573 (CRL-2170) and MiaPaCa-2 (CRL-1420) cells were purchased from ATCC. Both cell lines are […] for the G12C mutation in KRAS. SW1573 cells were cultured in DMEM+F12+Glutamax (+Sodium Bicarbonate, +sodium pyruvate, Thermofisher scientific, #10565) supplemented with 10% FBS (Thermofisher scientific, #2060357) and 1% Antibiotic-Antimycotic (Thermofisher scientific, #15240096). MiaPaCa-2 cells were cultured in DMEM+Glutamax media (Thermofisher scientific, #10566) supplemented with 10% FBS (Thermofisher scientific, #2060357) and 1% Antibiotic-Antimycotic (Thermofisher scientific, #15240096). For degradation assays, 384 well plates were purchased from Corning (Corning® CellBIND® 384-well Flat Clear Bottom Black Polystyrene Microplates, Low Flange, #3770). Gambogic acid was purchased from Selleckchem (#S2448). Alamar blue was purchased from Thermofisher scientific (A50101) and used according to manufacturer instructions. The Nano-Glo® HiBit Lytic Detection System and Nano-Glo® HiBit Blotting System were purchased from Promega (#N3050 and #N2410) and used according to manufacturer instructions.
To create the SW1573 HiBit-KRAS^G12C cell line, the nucleotide sequence encoding the 11 amino acid HiBit tag from Promega (Schwinn, M. K. et al. (2018) CRISPR-mediated tagging of endogenous proteins with a luminescent peptide. ACS Chem. Biol. 13(2), 467-474) was appended to the N-terminus of the KRAS^G12C coding sequence. This synthesized DNA was cloned into a modified pcDNA3.1 vector under the control of the thymidine kinase (TK) promoter. This HiBit-KRAS^G12C expressing plasmid was transfected into parental SW1573 cells and colonies were selected using 400 μg/mL zeocin. The resulting clonal lines were screened for expression of HiBit-KRAS^G12C protein using Nano-Glo® HiBit Blotting System. A luminescent band of the correct size for HiBit-KRAS^G12C was detected in several clones. Clone E6 was selected for further studies.
Either SW1573 HiBit-KRas^G12C or MiaPaCa-2 HiBit-KRas^G12C cells were plated at 9000 cells/well in a 384 well plate (Corning #3770). Exemplary heterobifunctional molecules and positive controls were diluted in the appropriate cell media and applied to the plated cells resulting in a final concentration titration of 10 μM to 20 nM in either 0.1% or 0.5% dimethyl sulfoxide (DMSO). Gambogic acid was used as a positive control for cytotoxicity and titrated from 10 μM to 78 nM. All assays were performed in triplicate. Cells were treated with compounds for 24 hours at 37° C. in an incubator containing 5% CO2. Following treatment, alamar blue was used to determine if any compounds led to a loss in cell viability after 24 hours. The 10× alamar blue reagent was added to a final concentration of 1× as recommended by the manufacturer and cells were returned to the incubator for 4 hours. Plates were then allowed to equilibrate to room temperature and fluorescence was measured using a Perkin-Elmer EnVision. After completion of the fluorescence read, the liquid from each well was removed and the cells were washed with PBS. The Nano-Glo® HiBiT detection reagent was prepared according to the manufacturer's instructions and added to each well after the PBS wash was removed. Following incubation at room temperature for 45 minutes, the luminescence was read using the ultra-sensitive luminescence aperture on the Envision instrument.
Fluorescence values from the alamar blue treatment were normalized to the DMSO only control for each compound titration. We hypothesized that compounds that led to a ≥50% loss in cell viability of the KRAS-independent SW1573 HiBit-KRas^G12C cells were likely generally cytotoxic and loss of HiBit-KRAS^G12C signal from these compounds may be due to lower cell number and not specific KRAS^G12C degradation. These points were therefore excluded from the data analysis for degradation. […]
(HiBiT is a short tag that completes a luciferase, so light tracks the accessible tagged protein.)

Sequence of HiBit-KRAS^G12C (P01116 1-186 isoform P01116-2 G12C limits assumed): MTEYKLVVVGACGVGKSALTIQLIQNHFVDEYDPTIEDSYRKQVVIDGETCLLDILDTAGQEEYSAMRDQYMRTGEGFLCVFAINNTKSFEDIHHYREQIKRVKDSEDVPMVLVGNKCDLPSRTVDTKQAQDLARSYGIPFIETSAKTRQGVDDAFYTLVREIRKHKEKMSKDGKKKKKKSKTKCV

Consider `C=CC(=O)N1CCN(c2nc(OC[C@@H]3C[C@@H](OCCOc4cc(-c5scnc5C)ccc4CNC(=O)[C@@H]4C[C@@H](O)CN4C(=O)[C@@H](c4cc(C)no4)C(C)C)CN3C)nc3c2CCN(c2cccc4ccccc24)C3)C[C@@H]1CC#N` [Compound 87, (2S,4R)-N-{[2-(2-{[(3R,5S)-5-[({4-[(3S)-3-(cyanomethyl)-4-(prop-2-enoyl)piperazin-1-yl]-7-(naphthalen-1-yl)-5H,6H,7H,8H-pyrido[3,4-d]pyrimidin-2-yl}oxy)methyl]-1-methylpyrrolidin-3-yl]oxy}ethoxy)-4-(4-methyl-1,3-thiazol-5-yl)phenyl]methyl}-4-hydroxy-1-[(2R)-3-methyl-2-(3-methyl-1,2-oxazol-5-yl)butanoyl]pyrrolidine-2-carboxamide], for which the Dmax lay within 35 to 70% and the DC50 was above 1 µM.
As to `C=CC(=O)N1CCN(c2nc(OCCN3CCC(OCCOc4cc([C@H](C(=O)N5C[C@@H](O)C[C@H]5C(=O)N[C@@H](C)c5ccc(-c6scnc6C)cc5)C(C)C)on4)CC3)nc3c(F)c(-c4cc(O)cc5ccccc45)c(Cl)cc23)C[C@@H]1CC#N` [Compound 2, (2S,4S)-1-[(2R)-2-{3-[2-({1-[2-({6-chloro-4-[(3S)-3-(cyanomethyl)-4-(prop-2-enoyl)piperazin-1-yl]-8-fluoro-7-(3-hydroxynaphthalen-1-yl)quinazolin-2-yl}oxy)ethyl]piperidin-4-yl}oxy)ethoxy]-1,2-oxazol-5-yl}-3-methylbutanoyl]-4-hydroxy-N-[(1S)-1-[4-(4-methyl-1,3-thiazol-5-yl)phenyl]ethyl]pyrrolidine-2-carboxamide], the DC50 is above 1 µM.
The same measure, in the same setting: next, `C=CC(=O)N1CCN(c2nc(O[C@H](C)CN3CCC(OCCOCC(=O)N[C@H](C(=O)N4C[C@H](O)C[C@H]4C(=O)N[C@@H](C)c4ccc(-c5scnc5C)cc4)C(C)(C)C)CC3)nc3c(F)c(-c4c(O)cccc4F)c(Cl)cc23)C[C@H]1C` [Compound 44, (2S,4R)-1-[(2S)-2-{2-[2-({1-[(2R)-2-{[6-chloro-8-fluoro-7-(2-fluoro-6-hydroxyphenyl)-4-[(3R)-3-methyl-4-(prop-2-enoyl)piperazin-1-yl]quinazolin-2-yl]oxy}propyl]piperidin-4-yl}oxy)ethoxy]acetamido}-3,3-dimethylbutanoyl]-4-hydroxy-N-[(1S)-1-[4-(4-methyl-1,3-thiazol-5-yl)phenyl]ethyl]pyrrolidine-2-carboxamide]: above 1 µM.
On the same count and under the same terms, to `C=C(F)C(=O)N1CCN(c2nc(OCCN3CCC(OCCOc4cc([C@@H](C(=O)N5C[C@H](O)C[C@H]5C(=O)N[C@@H](C)c5ccc(-c6scnc6C)cc5)C(C)C)on4)CC3)nc3c(F)c(-c4cc(O)cc5ccccc45)c(Cl)cc23)C[C@@H]1CC#N` [Compound 1, (2S,4R)-1-[(2S)-2-{3-[2-({1-[2-({6-chloro-4-[(3S)-3-(cyanomethyl)-4-(2-fluoroprop-2-enoyl)piperazin-1-yl]-8-fluoro-7-(3-hydroxynaphthalen-1-yl)quinazolin-2-yl}oxy)ethyl]piperidin-4-yl}oxy)ethoxy]-1,2-oxazol-5-yl}-3-methylbutanoyl]-4-hydroxy-N-[(1S)-1-[4-(4-methyl-1,3-thiazol-5-yl)phenyl]ethyl]pyrrolidine-2-carboxamide] belongs above 1 µM.
Same read-out and setting: next, `C=CC(=O)N1CCN(c2nc(OC[C@@H]3C[C@@H](OCCOCCOCCOCCOCCOCCOCCOCCOCC(=O)N[C@H](C(=O)N4C[C@H](O)C[C@H]4C(=O)N[C@@H](C)c4ccc(-c5scnc5C)cc4)C(C)(C)C)CN3C)nc3c2CCN(c2cccc4ccccc24)C3)C[C@@H]1CC#N` [Compound 74, (2S,4R)-1-[(2S)-2-(26-{[(3R,5S)-5-[({4-[(3S)-3-(cyanomethyl)-4-(prop-2-enoyl)piperazin-1-yl]-7-(naphthalen-1-yl)-5H,6H,7H,8H-pyrido[3,4-d]pyrimidin-2-yl}oxy)methyl]-1-methylpyrrolidin-3-yl]oxy}-3,6,9,12,15,18,21,24-octaoxahexacosanamido)-3,3-dimethylbutanoyl]-4-hydroxy-N-[(1S)-1-[4-(4-methyl-1,3-thiazol-5-yl)phenyl]ethyl]pyrrolidine-2-carboxamide]: above 1 µM; `C=CC(=O)N1CCN(c2nc(OCCN3CCC(COCC(=O)N[C@H](C(=O)N4C[C@@H](O)C[C@H]4C(=O)N[C@@H](C)c4ccc(-c5scnc5C)cc4)C(C)(C)C)CC3)nc3c(F)c(-c4cc(O)cc5ccccc45)c(Cl)cc23)CC1` [Compound 8, (2S,4S)-1-[(2S)-2-(2-{[1-(2-{[6-chloro-8-fluoro-7-(3-hydroxynaphthalen-1-yl)-4-[4-(prop-2-enoyl)piperazin-1-yl]quinazolin-2-yl]oxy}ethyl)piperidin-4-yl]methoxy}acetamido)-3,3-dimethylbutanoyl]-4-hydroxy-N-[(1S)-1-[4-(4-methyl-1,3-thiazol-5-yl)phenyl]ethyl]pyrrolidine-2-carboxamide]: above 1 µM; `C=CC(=O)N1CCN(c2nc(O[C@H](C)CN3CCC(CN4CC5(CN(CC(=O)N[C@H](C(=O)N6C[C@H](O)C[C@H]6C(=O)N[C@@H](C)c6ccc(-c7scnc7C)cc6)C(C)(C)C)C5)C4)CC3)nc3c(F)c(-c4cc(O)cc5ccccc45)c(Cl)cc23)CC1` [Compound 35, (2S,4R)-1-[(2S)-2-{2-[6-({1-[(2R)-2-{[6-chloro-8-fluoro-7-(3-hydroxynaphthalen-1-yl)-4-[4-(prop-2-enoyl)piperazin-1-yl]quinazolin-2-yl]oxy}propyl]piperidin-4-yl}methyl)-2,6-diazaspiro[3.3]heptan-2-yl]acetamido}-3,3-dimethylbutanoyl]-4-hydroxy-N-[(1S)-1-[4-(4-methyl-1,3-thiazol-5-yl)phenyl]ethyl]pyrrolidine-2-carboxamide]: above 1 µM.
Turning to `C=CC(=O)N1CCN(c2nc(O[C@H](C)CN3CCC(OCCOCCOCCOCCOc4cc(-c5scnc5C)ccc4CNC(=O)[C@@H]4C[C@@H](O)CN4C(=O)[C@H](c4cc(C)no4)C(C)C)CC3)nc3c(F)c(-c4cc(O)cc5ccccc45)c(Cl)cc23)CC1` [Compound 75, (2S,4R)-N-({2-[2-(2-{2-[2-({1-[(2R)-2-{[6-chloro-8-fluoro-7-(3-hydroxynaphthalen-1-yl)-4-[4-(prop-2-enoyl)piperazin-1-yl]quinazolin-2-yl]oxy}propyl]piperidin-4-yl}oxy)ethoxy]ethoxy}ethoxy)ethoxy]-4-(4-methyl-1,3-thiazol-5-yl)phenyl}methyl)-4-hydroxy-1-[(2S)-3-methyl-2-(3-methyl-1,2-oxazol-5-yl)butanoyl]pyrrolidine-2-carboxamide], the Dmax was below 35% and the DC50 was above 1 µM.
As to `C=CC(=O)N1CCN(c2nc(O[C@H](C)CN3CCC(OCCOCC(=O)N[C@H](C(=O)N4C[C@H](O)C[C@H]4C(=O)N[C@@H](C)c4ccc(-c5scnc5C)cc4)C(C)(C)C)CC3)nc3c(F)c(-c4cc(O)cc5ccccc45)c(Cl)cc23)CC1` (atropisomer, axis not shown) [Compound 85, (2S,4R)-1-[(2S)-2-{2-[2-({1-[(2R)-2-{[6-chloro-8-fluoro-7-(3-hydroxynaphthalen-1-yl)-4-[4-(prop-2-enoyl)piperazin-1-yl]quinazolin-2-yl]oxy}propyl]piperidin-4-yl}oxy)ethoxy]acetamido}-3,3-dimethylbutanoyl]-4-hydroxy-N-[(1S)-1-[4-(4-methyl-1,3-thiazol-5-yl)phenyl]ethyl]pyrrolidine-2-carboxamide], the DC50 is above 1 µM.
